In patent US20230114728A1 (Venatorx Pharmaceuticals, Inc., priority 2019, published 2023):
≈ marks a conversion by molar mass, not a printed value.

How the values were obtained:
Assay in all cases: Broth microdilution MIC in CAMHB
Type in all cases: cell-based
E. coli AG100 = conditions: Escherichia coli; E. coli AG100 (wild-type parent); MHB; read-out: Minimum Inhibitory Concentration, E. coli AG100
In short: (§1)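 Lowest compound concentration with no visible growth after 16-20 h at 37 °C defines MIC. Plates of 2-fold serial dilutions in cation-adjusted Mueller Hinton broth received 2-8×10^5 CFU/mL of exponentially grown cells, per CLSI methods; panel spans reference, hyper-permeable and efflux-pump-deleted strains.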

E. coli AG100A = conditions: Escherichia coli, read-out: Minimum Inhibitory Concentration, E. coli AG100A
In short: as §1

[1] = test system: K. pneumoniae 848844 producing SHV-11 and KPC-2; conditions: Klebsiella pneumoniae, read-out: Minimum Inhibitory Concentration, K. pneumoniae 848844
In short: as §1

E. coli ATCC 25922 = conditions: Escherichia coli, ATCC25922; E. coli ATCC 25922; MHB; read-out: Minimum Inhibitory Concentration, E. coli 25922
In short: as §1

A. baumannii ATCC 19606 = conditions: Acinetobacter baumannii, ATCC19606; MHB; read-out: Minimum Inhibitory Concentration, A. baumannii ATCC 19606
In short: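 MIC, read by eye, is the lowest compound concentration giving no bacterial growth after 16-20 h at 37° C. Test compounds are serially diluted 2-fold in CAMHB and seeded with 2-8×10^5 CFU/mL of bacteria taken from a 3-5 h shaking culture, following CLSI methods.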

E. coli D22 = conditions: Escherichia coli; E. coli D22 (hyper-permeable); MHB; read-out: Minimum Inhibitory Concentration, E. coli D22
In short: as §1

[2] = test system: K. pneumoniae SI-117 producing VIM-1; conditions: Klebsiella pneumoniae, read-out: Minimum Inhibitory Concentration, K. pneumoniae SI-117
In short: as §1

P. aeruginosa ATCC 27853 = conditions: Pseudomonas aeruginosa, ATCC27853; MHB; read-out: Minimum Inhibitory Concentration, P. aeruginosa ATCC 27853
In short: as §1

P. aeruginosa ATCC 35151 = conditions: Pseudomonas aeruginosa, ATCC35151; MHB; hyper-permeable strain; read-out: Minimum Inhibitory Concentration, P. aeruginosa ATCC 35151
In short: as §1

[3] = test system: P. aeruginosa (ΔmexAB-oprM); conditions: Pseudomonas aeruginosa, read-out: Minimum Inhibitory Concentration, P. aeruginosa ΔmexAB-OprM
In short: as §1

[4] = test system: K. pneumoniae UMM producing SHV-5 and KPC-2; conditions: Klebsiella pneumoniae, read-out: Minimum Inhibitory Concentration, K. pneumoniae UMM
In short: as §1

E. coli 901C = conditions: Escherichia coli; E. coli 901C (hyper-permeable); MHB; read-out: Minimum Inhibitory Concentration, E. coli 901C
In short: as §1

Row | SMILES | MIC (E. coli AG100) [µg/mL] | MIC (E. coli AG100A) [µg/mL] | MIC [1] [µg/mL] | MIC (E. coli ATCC 25922) [µg/mL] | MIC (A. baumannii ATCC 19606) [µg/mL] | MIC (E. coli D22) [µg/mL] | MIC [2] [µg/mL] | MIC (P. aeruginosa ATCC 27853) [µg/mL] | MIC (P. aeruginosa ATCC 35151) [µg/mL] | MIC [3] [µg/mL] | MIC [4] [µg/mL] | MIC (E. coli 901C) [µg/mL]
1 | CCN1CCN(C(=O)NC(C(=O)N[C@H]2Cc3cccc(C(=O)O)c3OB2O)c2c(F)cc(NS(N)(=O)=O)cc2F)C(=O)C1=O (stereo partly drawn) [Example 176, (3R)-3-(2-(2,6-difluoro-4-(sulfamoylamino)phenyl)-2-(4-ethyl-2,3-dioxopiperazine-1-carboxamido)acetamido)-2-hydroxy-3,4-dihydro-2H-benzo[e][1,2]oxaborinine-8-carboxylic acid] | 32 to 64 (≈ 50.1 to 100 µM) | 2 to 4 (≈ 3.13 to 6.27 µM) | > 128 | 32 to 64 (≈ 50.1 to 100 µM) | > 128 | 2 to 4 (≈ 3.13 to 6.27 µM) | > 128 | > 128 | 2 to 4 (≈ 3.13 to 6.27 µM) | 32 to 64 (≈ 50.1 to 100 µM) | 32 to 64 (≈ 50.1 to 100 µM) | < 0.25
2 | NCCN1CCN(C(=O)NC(C(=O)N[C@H]2Cc3cccc(C(=O)O)c3OB2O)c2c(F)cc(NS(N)(=O)=O)cc2F)C(=O)C1=O (stereo partly drawn) [Example 177, (3R)-3-(2-(4-(2-aminoethyl)-2,3-dioxopiperazine-1-carboxamido)-2-(2,6-difluoro-4-(sulfamoylamino)phenyl)acetamido)-2-hydroxy-3,4-dihydro-2H-benzo[e][1,2]oxaborinine-8-carboxylic acid] | > 128 | 8 to 16 (≈ 12.2 to 24.5 µM) | > 128 | > 128 | > 128 | 32 to 64 (≈ 49 to 98 µM) | > 128 | > 128 | 2 to 4 (≈ 3.06 to 6.12 µM) | 32 to 64 (≈ 49 to 98 µM) | > 128 | 2 to 4 (≈ 3.06 to 6.12 µM)
3 | NCCCN1CCN(C(=O)NC(C(=O)N[C@H]2Cc3ccc(F)c(C(=O)O)c3OB2O)c2c(F)cc(O)cc2F)C(=O)C1=O (stereo partly drawn) [Example 178, (3R)-3-(2-(4-(3-aminopropyl)-2,3-dioxopiperazine-1-carboxamido)-2-(2,6-difluoro-4-hydroxyphenyl)acetamido)-7-fluoro-2-hydroxy-3,4-dihydro-2H-benzo[e][1,2]oxaborinine-8-carboxylic acid] | 8 to 16 (≈ 13.2 to 26.3 µM) | 8 to 16 (≈ 13.2 to 26.3 µM) | 32 to 64 (≈ 52.7 to 105 µM) | 32 to 64 (≈ 52.7 to 105 µM) | > 128 | 2 to 4 (≈ 3.29 to 6.59 µM) | 32 to 64 (≈ 52.7 to 105 µM) | > 128 | 0.5 to 1 (≈ 0.823 to 1.65 µM) | 8 to 16 (≈ 13.2 to 26.3 µM) | 8 to 16 (≈ 13.2 to 26.3 µM) | 2 to 4 (≈ 3.29 to 6.59 µM)
4 | CCN1CCN(C(=O)NC(C(=O)N[C@H]2Cc3cccc(C(=O)O)c3OB2O)c2c(F)cc(N)cc2F)C(=O)C1=O (stereo partly drawn) [Example 181, (3R)-3-(2-(4-amino-2,6-difluorophenyl)-2-(4-ethyl-2,3-dioxopiperazine-1-carboxamido)acetamido)-2-hydroxy-3,4-dihydro-2H-benzo[e][1,2]oxaborinine-8-carboxylic acid] | 32 to 64 (≈ 57.2 to 114 µM) | 2 to 4 (≈ 3.58 to 7.15 µM) | > 128 | 32 to 64 (≈ 57.2 to 114 µM) | > 128 | 2 to 4 (≈ 3.58 to 7.15 µM) | 32 to 64 (≈ 57.2 to 114 µM) | > 128 | 0.5 to 1 (≈ 0.894 to 1.79 µM) | 8 to 16 (≈ 14.3 to 28.6 µM) | 32 to 64 (≈ 57.2 to 114 µM) | < 0.25
